Columns and labels:
Type in all cases: cell-based, human
[1] = system: 19-9-11 ishcat-1 and ishcat-2 cells; test: Growth factor free cardiac differentiation by CH followed by dox-induced β-catenin shRNA, cTnT flow cytometry
Protocol: cardiac directed differentiation via small molecules: Cells were dissociated and plated as described in the Activin/BMP4 protocol. When hPS cells maintained on Matrigel® or Synthemax plates achieved confluence, cells were treated with CH in RPMI/B27-insulin for 24 hr (day 0 to day 1). The medium was changed to RPMI/B27-insulin, followed by 2 μg/ml dox treatment at different times between day 1 and day 5 for transgenic cell lines. For genetically unmodified lines, 5 μM IWP2 (Tocris) or IWP4 (Stemgent) was added at day 3 and removed during the day 5 medium change. Cells were maintained in the RPMI/B27 starting from day 7, with the medium changed every 3 days. Flow Cytometry: Cells were dissociated into single cells and then fixed with 1% paraformaldehyde for 20 min at room temperature and stained with primary and secondary antibodies in PBS plus 0.1% Triton X-100 and 0.5% BSA. For the cell proliferation assay, a 17-hour pulse of BrdU was performed to identify dividing cardiomyocytes (Zhang et al., Circ. Res. 104, e30-41 (2009)). Data were collected on a FACSCaliber flow cytometer (Beckton Dickinson) and analyzed using FlowJo. Our results and prior studies (Ren et al., J. Mol. Cell. Cardiol. 51:280-287 (2011); Tran et al., Stem Cells 27:1869-1878 (2009); Wang et al., A.C.S. Chem. Biol. 6, 192-197 (2011); […] et al., Circ Res. 109:360-364 (2011)) indicate that induction of canonical Wnt signaling early and suppression of canonical Wnt signaling at later stages of differentiation enhance yield of cardiomyocytes. The inventors next sought to determine whether modulating Gsk3 and canonical Wnt signaling alone was sufficient to induce cardiogenesis. Undifferentiated hPS cells were cultured in RPMI/B27-insulin medium containing CH. CH was removed by medium exchange at day 1 and dox was added to the medium at various time points between […] and day 4. At day 5, the medium was replaced with RPMI/B27-insulin (FIG. 6A) and cardiomyocyte differentiation was assessed at day 15 by the percentage and yield of cTNT and/or MF20 expressing cells. In the 19-9-11 […]-1 line, 12 μM CH produced the most cTNT+ cells at day 15 without additional dox-induced β-catenin knockdown (FIG. 7A). The inventors then investigated the effect of the timing of dox treatment following addition of 12 μM CH. Addition of dox 36 hours following initiation of differentiation generated 95% cTNT+ cells with yields of approximately 15 cTNT+ cells per input iPSC (FIGS. 6B and 7B). A high yield of cTNT+ cells was also obtained using 19-9-11 […]-2 and three additional hPS cell lines (IMR90C4, 6-9-9, and H9) transduced with inducible β-catenin shRNA […]-1 (FIG. 7C).

[2] = system: 19-9-11 and IMR90C4 iPSCs; test: Cardiac directed differentiation via small molecules on Synthemax plates, cTnT/MF20 flow cytometry; settings: 12 μM CH at day 0 and 5 μM IWP4 at day 3, day 15
Protocol: cardiac directed differentiation via small molecules: Cells were dissociated and plated as described in the Activin/BMP4 protocol. When hPS cells maintained on Matrigel® or Synthemax plates achieved confluence, cells were treated with CH in RPMI/B27-insulin for 24 hr (day 0 to day 1). The medium was changed to RPMI/B27-insulin, followed by 2 μg/ml dox treatment at different times between day 1 and day 5 for transgenic cell lines. For genetically unmodified lines, 5 μM IWP2 (Tocris) or IWP4 (Stemgent) was added at day 3 and removed during the day 5 medium change. Cells were maintained in the RPMI/B27 starting from day 7, with the medium changed every 3 days.
(§1) Flow Cytometry: Cells were dissociated into single cells and then fixed with 1% paraformaldehyde for 20 min at room temperature and stained with primary and secondary antibodies in PBS plus 0.1% Triton X-100 and 0.5% BSA. For the cell proliferation assay, a 17-hour pulse of BrdU was performed to identify dividing cardiomyocytes (Zhang et al., Circ. Res. 104, e30-41 (2009)). Data were collected on a FACSCaliber flow cytometer (Beckton Dickinson) and analyzed using FlowJo.
While shRNA inhibition of β-catenin provides specific and facile temporal regulation of canonical Wnt signaling, this method requires genetic modification of the hPS cell line which limits its potential clinical utility. […]

[3] = system: H9 hESCs; test: Activin A/BMP4 directed cardiac differentiation with GSK3 inhibitor pretreatment, cTnT flow cytometry; settings: GSK3 inhibitor (1 μM) 3 days prior to Activin A and BMP4; day 15; average
Protocol: Cardiac directed differentiation using Activin A and BMP4: hPS cells maintained on Matrigel® in mTeSR1 were dissociated into single cells with Accutase (Invitrogen) at 37° C. for 5 min and then seeded onto a Matrigel®-coated cell culture dish at 100,000 cell/cm^2 in mTeSR1 supplemented with 5 μM ROCK inhibitor (Y-27632, Stemgent) (day −5). Cells were cultured in mTeSR1, changed daily. At day 0, cells were treated with 100 ng/ml Activin A (R&D) in RPMI/B27-insulin. After 24 hr, the medium was changed to RPMI/B27-insulin supplemented with 5 ng/ml BMP4 (R&D) for another 4 days. At day 5, the medium was changed with RPMI/B27-insulin. At day 7 the cells were transferred to RPMI/B27, and medim changed every 3 days. When using GSK3 inhibitors to stimulate differentiation, cells were cultured in mTeSR1 containing BIO or CHIR99021 from day −3 to day 0.
as §1
Undifferentiated H9 hESCs were cultured in the presence of 0-8 μM CH for three days prior to EB formation. EBs were cultured in suspension for 4 days before transferring to 0.1% gelatin coated plates. […] The inventors also applied the GSK3 inhibitors CH and BIO to undifferentiated H9 hESCs three days prior to directed differentiation to cardiomyocytes via Activin A and BMP4.

[4] = 12 μM CH, dox added 36 hours following initiation of differentiation, day 15

## Cc1c[nH]c(-c2cnc(NCCNc3ccc(C#N)cn3)nc2-c2ccc(Cl)cc2Cl)n1 [CH]
[1]; 12 μM CH followed by dox treatment at 36 hours, >50 independent experiments
  purity of cardiomyocytes: > 90%
[1]; [4]
  cTNT+ cells: 95%
  yield of cTNT+ cells: approximately 15 cTNT+ cells per input iPSC
[1]; 19-9-11 ishcat-1 line, without dox-induced β-catenin knockdown
  CH concentration that produced the most cTNT+ cells at day 15: 12 µM
[2]
  cTNT+ or MF20+ cells: approximately 85%
[3]
  cTNT-labeled cells: 50%

From patent US9663764B2, “Generation of cardiomyocytes from human pluripotent stem cells” (Wisconsin Alumni Research Foundation, priority 2011, dated 2017)
